From patent US9273364B2 (Kyoto University, priority 2010, dated 2016) come the findings set out here.

Data set [1] concerns alternative splicing of a specific gene (GFP/RFP reporter). The data set is described as follows: Compound screen with GFP/RFP alternative splicing reporter. It counts as cell-based. The source says:
Strategy of a method for testing whether or not a compound to be tested affects an alternative splicing of a specific gene in a mammalian multicelluar organism is shown in FIG. 14.
The reporter proteins used for the method are GFP and FRP.

Data set [2] concerns mouse FGFR2 exon 9 RNA probe (U1 and U2 snRNA binding). In words: In vitro exon-recognition assay, exon 9 probe. It counts as biochemical. The settings on record: HeLa nuclear extract, UV crosslinking. How it is done:
(§1) A mutated DNA template of 3′ ss in intron 8 and 5′ ss in intron 9 was prepared from mutated reporter vectors as shown in FIG. 3A. The RNA substrates were labeled with ^32P by in vitro T7 transcription. In vitro splicing reaction and UV cross linking were performed under the conditions described by Sawa [Sawa H, Shimura Y (1992) Genes Dev 6: 244-254.]. To identify the shifted bands by UV cross linking, pre-heated cDNA oligo (10 microgram/mL) for U1 (5′-[…]-3′/SEQ ID NO:38) or U2 (5′-[…]-3′/SEQ ID NO:39) was added to the RNAs after UV cross linking, and the U1 or U2 cDNA oligo/RNAs mixture were digested with 50 U/mL of RNase H at 30 degrees C. for 10 min. In FIG. 5C, highly purified Flag-Fox2 and Flag-ESRP1 were added to RNAs and incubated at room temperature for 5 min before splicing reaction to examine their inhibitory or activating effects on exon recognition of U1 snRNA or U2 snRNA. After these reactions, RNAs were subjected to denaturing PAGE analysis and autoradiography.
(§2) Next, the present inventors tested whether Fox and/or ESRP cause switching from exon 9 to exon 8 through interruption of exon 9 recognition. The present inventors examined this under the in vitro splicing conditions using ^32P-labeled RNA probe of exon 9 with introns containing UGCAUG and ISE/ISS-3 sites (FIG. 10C, top panel) and the exon 8 RNA probe of same stretches. […]

Data set [3] concerns mouse FGFR2 exon 8 RNA probe (U1 snRNA binding). The data set is described as follows: In vitro exon-recognition assay, exon 8 probe. It counts as biochemical. The settings on record: HeLa nuclear extract, UV crosslinking. The procedure: as §1, §2
Setting [4] is: cell count after compound at final conc., Ctrl number of cells 4303-5627.

Counter-ions that a name gives are not always drawn. Like-named read-outs stand apart in the source and are kept apart here.

In data set [1] (setting [4]), `CC(CCc1ccc(O)cc1)NCCc1ccc(O)c(O)c1` (stereo not shown) [Dobutamine HCl] displayed a Number of cells of 2991.
Molecule `Clc1ccc(CO/N=C(\Cn2ccnc2)c2ccc(Cl)cc2Cl)c(Cl)c1` (racemic) [Oxiconazole nitrate] came in with a Number of cells in data set [1] (50 ng/mL) of 2732.
On to `Clc1ccc(C(Cn2ccnc2)OCc2csc3c(Cl)cccc23)c(Cl)c1` (racemic) [Sertaconazole], for which the Number of cells in data set [1] (50 ng/mL) was 1863.
As for `C#C[C@]1(O)CC[C@H]2[C@@H]3CCC4=CC(=O)CC[C@@H]4[C@H]3CC[C@@]21C` (racemic) [Norethindrone], the Number of cells in data set [1] is reported as 3205.
With `Nc1ccn([C@@H]2O[C@H](CO)[C@@H](O)[C@@H]2O)c(=O)n1` (racemic) [Cytarabine], in data set [1] (50 ng/mL), the Number of cells amounted to 48.
As to `Clc1ccc(C(Cn2ccnc2)OCc2ccsc2Cl)c(Cl)c1` (racemic) [Tioconazole], the Number of cells in data set [1] (50 ng/mL) was 850.
For `O=C1[O][Pt]2([NH][C@@H]3CCCC[C@H]3[NH]2)[O]C1=O` [Oxaliplatin], in data set [1], the “GFP/RFP (Ctrl = 1)” value came out at 2.271. The same molecule showed a Number of cells in data set [1] (setting [4]) of 825.
In data set [1] (setting [4]), `COc1ccc(C2CNC(=O)C2)cc1OC1CCCC1` (stereo not shown) [Rolipram] had a Number of cells of 2878.
Molecule `COc1cccc2c1C(=O)c1c(O)c3c(c(O)c1C2=O)C[C@@](O)(C(C)=O)C[C@@H]3O[C@H]1C[C@H](N)[C@H](O)[C@H](C)O1` [Daunorubicin HCl] showed a Number of cells in data set [1] (50 ng/mL) of 3.
In turn, `C[C@]12CC[C@@H]3c4ccc(O)cc4C[C@@H](CCCCCCCCC[S+]([O-])CCCC(F)(F)C(F)(F)F)[C@H]3[C@@H]1CC[C@@H]2O` (mixture of isomers) [Fulvestrant] displayed a Number of cells in data set [1] (setting [4]) of 2156.
As for `COc1cc2c(cc1OC)-c1c/c(=N\c3c(C)cc(C)cc3C)n(C)c(=O)n1CC2` [Trequinsin], in data set [1], the Number of cells is reported as 3009.

B1: ESRP1 protein: highly purified recombinant Flag-ESRP1 added to RNAs before splicing reaction (protein, UniProt Q6NXG1 1-681, looked up)
Epithelial splicing …: MTASPDYLVVLFGITAGATGAKLGSDEKELILLFWKVVDLANKKVGQLHEVLVRPDQLELTEDCKEETKIDVESLSSASQLDQALRQFNQSVSNELNIGVGTSFCLCTDGQLHVRQILHPEASKKNVLLPECFYSFFDLRKEFKKCCPGSPDIDKLDVATMTEYLNFEKSSSVSRYGASQVEDMGNIILAMISEPYNHRFSDPERVNYKFESGTCSKMELIDDNTVVRARGLPWQSSDQDIARFFKGLNIAKGGAALCLNAQGRRNGEALVRFVSEEHRDLALQRHKHHMGTRYIEVYKATGEDFLKIAGGTSNEVAQFLSKENQVIVRMRGLPFTATAEEVVAFFGQHCPITGGKEGILFVTYPDGRPTGDAFVLFACEEYAQNALRKHKDLLGKRYIELFRSTAAEVQQVLNRFSSAPLIPLPTPPIIPVLPQQFVPPTNVRDCIRLRGLPYAATIEDILDFLGEFATDIRTHGVHMVLNHQGRPSGDAFIQMKSADRAFMAAQKCHKKNMKDRYVEVFQCSAEEMNFVLMGGTLNRNGLSPPPCKLPCLSPPSYTFPAPAAVIPTEAAIYQPSVILNPRALQPSTAYYPAGTQLFMNYTAYYPSPPGSPNSLGYFPTAANLSGVPPQPGTVVRMQGLAYNTGVKEILNFFQGYQYATEDGLIHTNDQARTLPKEWVCI
modifications: Flag tag
For B1, the “shifted bands by U1 and U2 snRNA” value in data set [2] is on record as “decreased”. Further, in data set [3], the “suppressive or activating effect on exon recognition” value is “not obvious”.

B2: Fox2 protein: highly purified recombinant Flag-Fox2 added to RNAs before splicing reaction (protein, UniProt O43251 1-390, looked up)
RNA binding protein fox-1 …: MQNEPLTPGYHGFPARDSQGNQEPTTTPDAMVQPFTTIPFPPPPQNGIPTEYGVPHTQDYAGQTGEHNLTLYGSTQAHGEQSSNSPSTQNGSLTTEGGAQTDGQQSQTQSSENSESKSTPKRLHVSNIPFRFRDPDLRQMFGQFGKILDVEIIFNERGSKGFGFVTFENSADADRAREKLHGTVVEGRKIEVNNATARVMTNKKMVTPYANGWKLSPVVGAVYGPELYAASSFQADVSLGNDAAVPLSGRGGINTYIPLISLPLVPGFPYPTAATTAAAFRGAHLRGRGRTVYGAVRAVPPTAIPAYPGVVYQDGFYGADLYGGYAAYRYAQPATATAATAAAAAAAAYSDGYGRVYTADPYHALAPAASYGVGAVASLYRGGYSRFAPY
modifications: Flag tag
Take B2: the “shifted bands by U1 and U2 snRNA” value in data set [2] is “decreased”. Also, in data set [3], the “suppressive or activating effect on exon recognition” value is reported as “not obvious”.
